Columns and labels:
Type in all cases: cell-based
[1] = test system: human lung fibroblasts MRC-5; experiment: fluorometric cell viability assay (Resazurin), MRC-5; conditions: MRC-5 cells, treated for 2 days
Experimental: (§1) Cell Culture: Human cervical carcinoma cells (HeLa) were cultured in DMEM (Gibco) supplemented with 5% fetal calf serum (FCS, Gibco), 100 U/ml penicillin, 100 μg/ml streptomycin at 37° C. and 5% CO2. The normal human fetal lung fibroblast MRC-5 cell line was maintained in F-10 medium (Gibco) supplemented with 10% FCS (Gibco), 200 mmol/l L-Glutamine, 100 U/ml penicillin, and 100 μg/ml streptomycin at 37° C. and 5% CO2. To establish the anticancer potential of the compounds they were tested in one cell line, namely HeLa by a fluorometric cell viability assay using Resazurin (Promocell GmbH). Compounds showing cytotoxicity were then tested on normal MRC-5 cells. 1 day before treatment, cells were plated in triplicates in 96-well plates at a density of 4×10^3 cells/well in 100μl for HeLa and 7×10^3 cells/well for MRC-5 cells. Cells were treated with increasing concentrations of the compounds for 2 days. After 2 days, medium and drug were removed and […] fresh medium containing Resazurin (0.2 mg/ml final concentration) were added. After 4h of incubation at 37° C., the highly red fluorescent dye resorufin's fluorescence was quantified at 590 nm emission with 540 nm excitation wavelength in the SpectraMax M5 microplate Reader. […]

[2] = test system: human cervical cancer HeLa; experiment: fluorometric cell viability assay (Resazurin), HeLa; conditions: HeLa cells, treated for 2 days
Experimental: as §1

H. contortus = experiment: larval development assay (number of L3)
Experimental: In vitro experiments can be conducted by testing compounds in a larval development assay. To do this, sheep are infected with infective third-stage larvae (L3) of species of Haemonchus, Trichstrongylus, Teledorsagia, Cooperia, Oesophagostomum or Chabertia. Faeces from these sheep are collected and used for experiments; ˜100 g of faeces are crushed homogenized and suspended in ˜1000 ml of sugar solution (specific gravity 1.2), put through a ‘tea strainer’ sieve, and the large undigested food material in the sieve discarded. The sugar solution is then placed into a flat dish and strips of plastic overhead transparency film placed on the surface. The plastic is left for at least 45 minutes to allow the eggs to stick and then removed carefully. The eggs are collected by washing them from the plastic film, with water, into a 50 ml centrifuge tube. The water containing egg suspension eggs is put through a […] to remove further plant material and then centrifuged at 1,000×g for 10 minutes. The supernatant is checked for eggs and then discarded as the majority of eggs are at the bottom of the tube. These eggs are collected in 1 ml of water and diluted to ˜200 eggs/20 ml. • 1. […] Following 7 days additional incubation, the numbers of L3 larvae that had developed in each well is determined.

C. elegans = C. elegans movement inhibition assay; conditions: for mobility of the C. elegans worms: 50 μM, result in words
Experimental: C. elegans movement inhibition assay: Asynchronous N2 C. elegans worms (Bristol) were maintained on nematode growth medium (NGM) agar, seeded with a lawn on OP50 E. coli as a food-source, according to standard protocol (Maintenance of C. elegans; Stiernagle, T., Ed.; WormBook, 2006.). Worms were harvested from NGM plates by washing with M9 buffer (42 mmol/l Na2HPO4, 86 mmol/l NaCl and 1 mmol/l MgSO4), aspiration and collection in a 10 mL tube (Falcon). The average number of worms in 5 μL of this suspension was calculated by transferring 4×5 μL aliquots to a glass slide (Menzel Glaser), and worms were enumerated under a compound microscope (Olympus CH30). To adjust the suspension to contain 1 worm per μL, M9 buffer was either added or removed after pelleting worms at 600×g for 30 sec.
Dilution of test compounds, Zolvix (monepantel) and DMSO for working stock solutions and 96 well plate set-up for liquid screen: A volume of […] buffer was added to each well in a 96-well plate, using a multichannel pipettor. A volume of 20μL of worm suspension was added to each well using a single-channel pipettor, with a trimmed pipette tip (increased aperture to minimize damage to worms). The worm suspension was resuspended by flicking after every three wells to maintain consistency. The compounds were stored at 4° C., and diluted in dimethyl sulfoxide (DMSO) to achieve a 100 mmol/l concentration 1 hr prior to addition to assay. These stock solutions were diluted further in DMSO to create a series of 20 mmol/l, […] and 0.002 mmol/l which were subsequently diluted 1:20 in M9 buffer to create 1 mmol/l, 0.1 mmol/l, 1 μmol/l and 0.1 μmol/l (all 5% (v/v) DMSO). […] A Zolvix (monepantel) dilution series was simultaneously created following the same dilution schema, and used as a positive control; 10 μL of 10% DMSO was added to achieve 1% DMSO vehicle control. 10 μL M9 was added to negative control wells (see FIG. 1). Plates were incubated at […]
Quantitative worm mobility scoring: Immobile worms were counted as a percentage of total worms in each well using an Olympus SZ30 dissecting microscope. The immobile fraction was subtracted from the total, and this remainder was divided by the total to give a percentage of live worms per well. Descriptive and inferential statistics were deferred until further replicates are performed.

Substance	IC50 [1]	IC50 [2]	Number of L3 H. contortus/100 μM (H. contortus)	Mobility in C. elegans at 50 μM (C. elegans)	mobility of the C. elegans worms (C. elegans)
2-Cyano-2-(ruthenocenecarboxamido)propyl ruthenocnecarboxylate [Compound 2a]	> 100 µM	> 100 µM			
N-(1-(ferrocenyloxy)-2-cyanopropan-2-yl)ferroceneamide [Compound 1]			94.7	25%	reduced
2-Ferroceneamido-2-cyanopropyl ferrocenate [Compound 2]	24.6 µM	> 100 µM	>100	22%	reduced

Source: patent US9598451B2, “Bis-organometallic 2-amino-3-hydroxy-2-methylpropanenitrile derivatives for use as anthelmintics” (UNIVERSITÄT ZÜRICH, priority 2013, dated 2017)
